What was measured:
[1] = Pharmacokinetic study in mice, single I.V. or P.O. administration; format: in vivo, male C57BL/6 J mice; conditions: for F (oral bioavailability): dose-normalized AUCinf
Experimental: The pharmacokinetics of LJ-4378 were evaluated in male C57BL/6 J mice following a single administration by either the oral (P.O.) or intravenous (I.V.) route. For P.O., LJ-4378 was administered at 10, 20, or 50 mg/kg in a vehicle composed of 0.5 mg/mL L-ascorbic acid, 5% DMSO, 20% PEG400, 20% Tween 80, and 55% of 0.1% copovidone. For I.V. administration, a 2 mg/kg dose was delivered via tail vein injection in a vehicle consisting of 5% DMSO, 25% PEG400, and 70% sterile water. Blood samples (200 μL) were collected at 5, 15, and 30 min and 1, 2, 4, 8, 12, and 24 h post-dose for the P.O. groups, and at 2, 5, 15, and 30 min and 1, 2, 4, 8, and 12 h post-dose for the I.V. group. Plasma was separated by centrifugation, and the concentrations of LJ-4378 were determined using a validated LC–MS/MS method. Pharmacokinetic parameters were calculated using non-compartmental analysis with Phoenix WinNonlin (v8.3), and included Cmax, Tmax, AUClast, AUCinf, t1/2, and clearance (Maclean et al. [2011]). Oral bioavailability was calculated using dose-normalized AUCinf values.

CYP2C9 = CYP2C9 (Homo sapiens, UniProt P11712); experiment: CYP enzyme inhibition in pooled human liver microsomes (diclofenac substrate); conditions: microsomes, 10 µM
Experimental: Cytochrome 450 (CYP) enzyme inhibition was evaluated using pooled human liver microsomes (Corning, #452117). […] Substrates and corresponding metabolites for each CYP isoform were as follows: phenacetin and acetaminophen for CYP1A2 (Sigma Aldrich, #77440 and A7085, respectively), diclofenac and 4'-hydroxydiclofenac for CYP2C9 (Sigma Aldrich, D6899; TRC, H825225), S-mephenytoin and 4'-hydroxymephenytoin for CYP2C19 (Sigma Aldrich, UC175; Santacruz, sc210197), dextromethorphan and dextrorphan for CYP2D6 (Sigma Aldrich, #81091 and UC205), and midazolam and 1'-hydroxymidazolam for CYP3A4 (KFDA; Sigma Aldrich, UC430).
Samples were preincubated at 37 °C for 5 min, and the reaction was initiated by the addition of the NADPH regeneration system, followed by incubation at 37 °C for 15 min. The reaction was terminated by adding acetonitrile containing the internal standard, and centrifuged at 15,000 rpm for 5 min at 4 °C. The supernatant was analyzed by LC–MS/MS using a Nexera XR system (Shimadzu, Japan) coupled with a TSQ Vantage mass spectrometer (Thermo, USA). […] Metabolites were quantified in multiple reaction monitoring (MRM) mode with Xcalibur software (version 4.4).
All experiments were performed in duplicate with variability ≤ 15%. The percent activity of each CYP enzyme was calculated based on metabolite formation relative to the no-inhibitor control.

WR mice = experiment: WR model: indirect calorimetry and adipose immunoblot after treatment cessation; format: in vivo, C57BL/6 J male mice
Source text: To assess post-treatment weight rebound (WR), the mice previously treated with vehicle, LJ-4378, or TZP were maintained on HFD for an additional 4 weeks following treatment cessation. Treatment protocols for the WR groups were identical to those of the HFD groups. In total, nine experimental groups were established: NCD + CTL, NCD + LJ, NCD + TZP; HFD + CTL, HFD + LJ, HFD + TZP; and WR + CTL, WR + LJ, WR + TZP. The volume of oxygen consumed (VO2), carbon dioxide produced (VCO2), respiratory exchange ratio (RER), energy expenditure, activity, and food intake were measured with PhenoMaster (TSE Systems, Bad Homburg, Germany). Indirect calorimetry was performed under controlled conditions, with a stable ambient temperature of 24 °C and a 12 h light/12-h dark cycle. Mice fed HFD were administered vehicle, LJ-4378, or TZP for 14 days, and the last 2 days of treatment were conducted during indirect calorimetry analysis. The WR model was examined by indirect calorimetry after 2 and 4 weeks of the weight regaining phase.
For protein extraction, we utilized PRO-RERP Protein Extraction Solution (17081, iNtRON Biotechnology, Gyeonggi-do, Korea), supplemented with […] Protease Inhibitor (S8820, Sigma, St. Louis, MO, USA) and PhosSTOP phosphatase inhibitor (#4906837001, Roche, Basel, Switzerland). Protein concentrations were determined using the Pierce BCA protein assay Kit (#23227, Thermo Fisher, Waltham, Massachusetts, USA) by measuring absorbance at 562 nm with a MultiSkan GO spectrophotometer (Thermo Fisher). The quantified proteins were loaded and separated in 12% SDS-PAGE gels and transferred to polyvinylidene difluoride (PVDF) membranes (Bio-Rad, Hercules, CA, USA). Membranes were blocked in 5% bovine serum albumin or skim milk in Tris-buffered saline with 0.1% Tween 20 (TBST) for 1 h, followed by overnight incubation with primary antibodies. The next day, membranes were washed 3 times with TBST and incubated for 1 h with horseradish peroxidase (HRP)-conjugated secondary antibody: Goat anti-rabbit (1:3000, #31460, Thermo Fisher) and Goat anti-Mouse IgG (1:3000, 115–035-174, Jackson ImmunoResearch). After secondary antibody incubation, membranes were washed 3 times with TBST and detected with the Fusion Solo chemiluminescence imaging system (Vilber Lourmat, France). EvolutionCapt (version 17.03) software and the ImageJ (National Institutes of Health, Bethesda, MD, USA) program were used for analysis and to quantify the protein level.

[2] = two weeks after treatment cessation

CYP2C9, sequence (P11712 whole entry, canonical isoform): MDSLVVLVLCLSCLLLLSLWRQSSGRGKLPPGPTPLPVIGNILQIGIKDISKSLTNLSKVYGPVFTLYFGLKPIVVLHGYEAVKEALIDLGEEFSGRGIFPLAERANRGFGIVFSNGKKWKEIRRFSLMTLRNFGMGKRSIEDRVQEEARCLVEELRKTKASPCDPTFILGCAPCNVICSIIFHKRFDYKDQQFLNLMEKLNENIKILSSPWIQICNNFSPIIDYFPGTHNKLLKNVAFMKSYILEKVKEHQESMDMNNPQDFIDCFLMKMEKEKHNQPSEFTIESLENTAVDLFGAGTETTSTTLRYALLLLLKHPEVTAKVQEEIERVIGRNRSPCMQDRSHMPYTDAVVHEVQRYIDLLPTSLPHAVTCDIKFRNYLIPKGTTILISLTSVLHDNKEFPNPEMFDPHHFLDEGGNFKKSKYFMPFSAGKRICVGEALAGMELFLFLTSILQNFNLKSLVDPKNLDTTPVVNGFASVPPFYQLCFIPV

CCCCC#Cc1nc(N)c2ncn([C@@H]3SC[C@@H](O)[C@H]3O)c2n1 [LJ-4378]
AUC0-t ([1]; I.V. 2.00 mg/kg): 411.45 ng·h/mL | CL ([1]; I.V. 2.00 mg/kg): 80.7 (mL/min)/kg | Cmax ([1]; I.V. 2.00 mg/kg): 2395.23 ng/mL | Tmax ([1]; I.V. 2.00 mg/kg): 1.8 min | t1/2 ([1]; I.V. 2.00 mg/kg): 27.6 min | AUC0-t ([1]; P.O. 10.00 mg/kg): 1273.67 ng·h/mL | CL ([1]; P.O. 10.00 mg/kg): 128.5 (mL/min)/kg | Cmax ([1]; P.O. 10.00 mg/kg): 1220.57 ng/mL | Tmax ([1]; P.O. 10.00 mg/kg): 4.8 min | t1/2 ([1]; P.O. 10.00 mg/kg): 158 min | F (oral bioavailability) ([1]; P.O. 10.00 mg/kg): 62.93% | AUC0-t ([1]; P.O. 20.00 mg/kg): 3067.21 ng·h/mL | CL ([1]; P.O. 20.00 mg/kg): 103.2 (mL/min)/kg | Cmax ([1]; P.O. 20.00 mg/kg): 2401.74 ng/mL | Tmax ([1]; P.O. 20.00 mg/kg): 15 min | t1/2 ([1]; P.O. 20.00 mg/kg): 233 min | F (oral bioavailability) ([1]; P.O. 20.00 mg/kg): 78.42% | AUC0-t ([1]; P.O. 50.00 mg/kg): 8446.78 ng·h/mL | CL ([1]; P.O. 50.00 mg/kg): 93.0 (mL/min)/kg | Cmax ([1]; P.O. 50.00 mg/kg): 5307.60 ng/mL | Tmax ([1]; P.O. 50.00 mg/kg): 30 min | t1/2 ([1]; P.O. 50.00 mg/kg): 187 min | F (oral bioavailability) ([1]; P.O. 50.00 mg/kg): 86.08% | % of control activity CYP2C9 (CYP2C9): 95.8% | P-HSL and mitochondrial proteins in BAT and iWAT, versus WR controls and TZP (WR mice; 2 weeks after treatment cessation): higher levels | energy expenditure, ANCOVA adjusted for body mass, versus vehicle or TZP (WR mice; 2 weeks post-treatment, WR): higher energy expenditure | elevated energy expenditure after 4 weeks of WR (WR mice; 4 weeks post-treatment): no longer evident | VO2, VCO2 and energy expenditure compared with TZP-treated group (WR mice; [2]): significantly higher | VO2, VCO2 and energy expenditure compared with WR controls (WR mice; [2]): elevated

Reference: PMC12680861, “Comparative analysis of LJ-4378 and tirzepatide in mouse models of obesity and weight regain” (Archives of Pharmacal Research, 2025)
